Reference: ChEMBL document CHEMBL3507680, “University of Dundee, Gates Library screen for HepG2 cell viability”

assay: Human HepG2 cell viability assay in 384 well format; type: toxicity, cell-based; design: dose 125 nL, time 70.5 hour; cytotoxicity at 70.5 h: concentration not given beside the values; conditions: HepG2 cells, read-out: Inhibition

| SMILES | cytotoxicity at 70.5 h [%] |
| --- | --- |
| COc1cc2cc(C(=O)O)n(C)c2c(OC)c1OC | -10.1 |
| Cc1cc(S(=O)(=O)N(CC(N)=O)CC(C)C)ccc1Br | 11.4 |
| Cc1ncc(CN(C)Cc2nc3cc(Cl)ccc3n2C)s1 | -18.2 |
| O=C(COCC(F)(F)F)Nc1nncs1 | 10.8 |
| CN(Cc1ccccc1C(F)(F)F)C(C(N)=O)c1ccccc1 (configuration not stated) | 10.2 |
| CC(c1ccc(F)cc1)N1CCN(Cc2ccc(C#N)cc2)CC1 (configuration not stated) | -11.6 |
| COc1ccc(NC(=O)CSc2nc(C)cc(C)n2)cn1 | -8.52 |
| Cc1c(CNCc2nn(-c3ccccc3)c3c2CCC3)cc(C#N)n1C | 4.96 |
| OC(c1ccccc1)C1CCN(Cc2csc(-c3ncccn3)n2)CC1 (configuration not stated) | -7.96 |
| COCc1cccc(NC(=O)NCCCN(C)S(C)(=O)=O)c1 | -10.1 |
| COc1cc(OC)cc(C2NC(=O)CN2Cc2ccc(Br)cc2)c1 (configuration not stated) | -8.73 |
| CCOc1ccc(Oc2cc(CN)ccn2)cc1 | -27.6 |
| Cc1nn(C(C)C)c(C)c1NC(=O)Nc1cccnc1N1CCCC1 | -8.9 |
| CN(C)C(=O)Cn1cc(C(=O)NCCc2ccc(C(F)(F)F)cc2)nn1 | 30.1 |
| CC(C)(C)C(CCO)NC(=O)Nc1ccncc1 (configuration not stated) | 23.3 |
| CCCNC(=O)CNC(=O)CCc1ccccc1Br | -7.6 |
| CC(C)COC(C)C(=O)NCCNS(C)(=O)=O (configuration not stated) | -7.36 |
| Cn1ccnc1CCNS(=O)(=O)c1cccnc1 | -4.82 |
| Cc1cccc(OC2CCN(C(=O)NCCn3ccnc3)CC2)c1C | -3.44 |
| CN(C)c1cc(C(=O)NCC2(c3ccc(F)cc3)CC2)ccn1 | -1.65 |
| CNC(=O)CN1CCC(NC(=O)C(C)Oc2ccccc2C#N)CC1 (configuration not stated) | -3.18 |
| O=c1c2ccccc2nnn1CN(CC1CCOC1)C1CC1 (configuration not stated) | -2.98 |
| Cc1noc(C)c1CNCc1nn(-c2ccccc2)c2c1CCC2 | -3.23 |
| COCCOc1ccc(NC(=O)N(CCO)C2CC2)cn1 | -10.9 |

| SMILES | cytotoxicity at 70.5 h [%] |
| --- | --- |
| Cc1cn2nc(N3CCCC3C(=O)N3CCN(C)CC3)sc2n1 (configuration not stated) | 13.5 |
| CC(C)(C)OC(=O)NC(C)(C)c1noc(Cn2ccnc2)n1 | -4.72 |
| COc1ccc(CCC(=O)NCCC2CCCO2)cc1Br (configuration not stated) | -7.13 |
| COCCOc1ccc(CNc2cnc3ccccc3n2)cn1 | -10.9 |
| Fc1ccc(C2CN(c3ncnc4nc[nH]c34)CCO2)cc1 (configuration not stated) | -11.9 |
| c1ccc2oc(C3CCN(Cc4ncon4)CC3)nc2c1 | -0.981 |
| COC(=O)c1ccc(NC(=O)CCNCc2ccco2)cc1 | -7.22 |
| Cc1c(C(=O)O)sc2nc(Cc3ccccc3)nc(N)c12 | -3.73 |
| Cc1ccc(CNC(=O)C2CCN(C(=O)c3ccco3)CC2)n1C | 20.7 |
| O=C(CSc1nncs1)N1CCN(Cc2ccc(Cl)s2)CC1 | -9.92 |
| CN(C)c1nc(N)nc(CN2CCC(c3nc4ccccc4o3)CC2)n1 | -7.79 |
| O=C1NCCCCC1Sc1nnc(C2CC2)n1C1CC1 (configuration not stated) | -5.95 |
| CCN(C1CCS(=O)(=O)C1)S(=O)(=O)c1cccc2cc(C)cnc12 (configuration not stated) | 2.06 |
| Cc1c(C(=O)O)oc2ccc(I)cc12 | -5.09 |
| CC(=O)N1CCCC(C(=O)Nc2ccccc2Cc2ccccc2)C1 (configuration not stated) | 3.24 |
| Cc1ccccc1C(=O)NC(C)CN1CCOC1=O (configuration not stated) | -3.59 |
| CC(C)c1nc(CSc2nnc(C3CC3)n2CC(N)=O)no1 | -7.31 |
| Cc1nccc(-c2cccc(NCc3nc(C(C)C)no3)c2)n1 | -10.6 |
| c1ccc2c(c1)COC1(CCCC1)N2 | 22.7 |
| OCc1ccc(OCC(F)(F)F)cc1 | -8.76 |
| Cc1nc(Nc2ccccn2)cc(N2CCN(S(C)(=O)=O)CC2)n1 | 11.2 |
| CCOC(=O)CCC(=O)N1CCC(CSCc2ccco2)CC1 | -12 |
| COCCc1noc(C2CCN(C(=O)Nc3cccs3)CC2)n1 | -4.24 |
| COCC(=O)N1CCc2[nH]c(=O)ccc2C1 | -8.99 |

| SMILES | cytotoxicity at 70.5 h [%] |
| --- | --- |
| O=c1ccc2c([nH]1)CCN(S(=O)(=O)c1ccc3c(c1)CCCC3)C2 | 3.55 |
| CC(C)Oc1ccc(C(=O)N2CCCSCC2CN(C)C)cc1 (configuration not stated) | 26.1 |
| CN(C)CC1CSCCCN1C(=O)c1ccsc1 (configuration not stated) | -6.74 |
| CN(C)CC1CSCCCN1S(=O)(=O)c1ccc(C(F)(F)F)cc1 (configuration not stated) | -3.11 |
| O=C(c1ccc2[nH]ccc2c1)N1CCCSCC1CN1CCCC1 (configuration not stated) | -2.63 |
| O=C(COc1ccc(F)cc1)N1CCCSCC1CN1CCOCC1 (configuration not stated) | 5.05 |
| Cc1cccc(NC(=O)C2CSc3ncc(C)c(=O)n3C2)n1 (configuration not stated) | -9.15 |
| Cc1ccncc1NC(=O)C1CSc2ncc(C)c(=O)n2C1 (configuration not stated) | 18.9 |
| CCc1c(C)nc2n(c1=O)CC(C(=O)NCc1cccs1)CS2 (configuration not stated) | 23 |
| COc1cc(C(=O)NCCc2ccc(OC)c(OC)c2)on1 | -2.98 |
| O=C(Cc1cccs1)NCC1(O)CCc2ccccc2C1 (configuration not stated) | -7.27 |
| CN(C)c1ccc(C(O)CNC(=O)NCCCc2ccccc2)cc1 (configuration not stated) | -9.74 |
| CSc1ccc(C(O)CNS(=O)(=O)C2CC2)cc1 (configuration not stated) | 2.97 |
| COCCN(Cc1ccoc1)S(=O)(=O)c1ccc(F)c(C)c1 | -11 |
| CCOCC(=O)NCCC(O)c1ccoc1 (configuration not stated) | -11.9 |
| Cc1cc(C(O)CCNC(=O)COc2ccccc2C)c(C)o1 (configuration not stated) | -2.27 |
| CSc1ncccc1C(=O)NCCC(O)c1cc(C)oc1C (configuration not stated) | -1.76 |
| COC1(CNC(=O)c2ccc(F)c(F)c2)CCSC1 (configuration not stated) | -11.7 |
| O=C(Nc1cccnc1)c1ccc(-n2cncn2)nn1 | 13.8 |
| Cc1csc(C(=O)NCCn2nc(-n3cncn3)ccc2=O)c1 | -6.83 |
| O=C(NCCn1nc(-n2cncn2)ccc1=O)c1ccsc1 | -4.55 |
| Cc1cc(S(=O)(=O)N2CCC(S(C)(=O)=O)C2)ccc1F (configuration not stated) | -5.71 |
| Cc1ccc(S(=O)(=O)N2CCC(S(C)(=O)=O)CC2)cc1C | -0.502 |
| O=C(Cn1c(=O)oc2ccccc21)N1Cc2cncnc2C1 | -5.29 |

| SMILES | cytotoxicity at 70.5 h [%] |
| --- | --- |
| Cn1cnc(S(=O)(=O)NCC(C)(O)c2ccc3c(c2)OCO3)c1 (configuration not stated) | -6.14 |
| Cn1cnc(S(=O)(=O)NCC2(O)CCOc3ccccc32)c1 (configuration not stated) | -4.65 |
| Cc1oncc1C(=O)NCC1(O)CCc2ccccc2C1 (configuration not stated) | 0.91 |
| Cn1cc(S(=O)(=O)NCC2CCN(C(=O)c3ccoc3)CC2)cn1 | -2.52 |
| O=C(Cc1ccsc1)NCCc1ccoc1 | -8.57 |
| Cc1nsc(C(=O)NCCc2ccccc2)n1 | -8.39 |
| Cc1nc(N(C)C)nc(C)c1NC(=O)c1ccccc1C(F)(F)F | -11 |
| Cc1nc(N2CCOCC2)nc(C)c1NC(=O)Cc1ccc(Cl)cc1 | 13.5 |
| Cc1nc(N(C)C)nc(C)c1NS(=O)(=O)c1ccccc1Cl | -8.77 |
| Cc1nc(N2CCCC2)nc(C)c1NS(C)(=O)=O | 0.704 |
| Cc1cc(C)c(S(=O)(=O)Nc2c(C)nc(N3CCCC3)nc2C)cc1C | 2.48 |
| Cc1nc(N2CCCC2)nc(C)c1NS(=O)(=O)c1ccccc1F | -1.28 |
| CC(C)CC(=O)N1CCN(c2cc(N(C)C)cnn2)CC1 | -3.64 |
| COc1ncc(NS(=O)(=O)c2cccc(C)c2)c(OC)n1 | 21.8 |
| COc1ncc(NS(=O)(=O)c2ccc(OC)c(C)c2)c(OC)n1 | 7.97 |
| Cc1nnsc1C(=O)NCCn1ccc(-c2ccncc2)n1 | 18.8 |
| O=C(NCCn1ccc(-c2ccncc2)n1)c1ccc2c(c1)OCO2 | 1.76 |
| O=S(=O)(NCCn1ccc(-c2ccncc2)n1)C1CC1 | 0.267 |
| CC(C)(C)C(=O)NCCn1ccc(-c2ccccn2)n1 | -1.26 |
| CS(=O)(=O)NCCn1ccc(-c2cccs2)n1 | -6.85 |
| Cn1nc(CNS(=O)(=O)Cc2ccccc2F)c2c1CCCC2 | -5.77 |
| Cc1nnsc1C(=O)NCc1nn(C)c2c1COCC2 | -13.8 |
| COC(=O)c1ccc(C(=O)NCc2nn(C)c3c2COCC3)cc1 | -4.89 |
| COCCN1CCC2(CC1)CN(Cc1cccc(C)n1)C(=O)CO2 | 0.221 |

| SMILES | cytotoxicity at 70.5 h [%] |
| --- | --- |
| Cc1cccc(CN2CC3(CCN(C(=O)C4CC4)CC3)OCC2=O)n1 | 1.74 |
| Cc1ccc(N2CCc3sc(C(=O)NCCN4CCCC4)cc32)nn1 | -0.377 |
| COCCNC(=O)[C@H]1C[C@@H]2CCN(c3ncccn3)C[C@@H]2O1 | -4.51 |
| Cc1ccnc(OC[C@]23COC[C@H]2CN(C(=O)c2ccnn2C)C3)n1 | -8.86 |
| CC(C)NC(=O)N1CCCC2(CC(C(=O)Nc3ccccc3)=NO2)C1 (configuration not stated) | 16.9 |
| Cn1cc(CN2CCC(F)(F)C3(CCN(c4cccc(F)c4)C3)C2)cn1 (configuration not stated) | 43.6 |
| CCOCc1ncn2c1CN(C(=O)Nc1ccccc1CC)CC2 | 16.8 |
| CN1C(Cn2cccn2)C[C@@H]2CN(Cc3nccs3)CC[C@@H]21 (some centres not stated) | -5.16 |
| CC(CCc1ccccc1)NC(=O)CNCCCN1CCOCC1 (configuration not stated) | 10.1 |
| Cc1cccc(CN2CC3(CCN(S(=O)(=O)C4CC4)CC3)OCC2=O)n1 | -0.285 |
| CNC(=O)CN1CC[C@H]2CN(C(=O)c3ccoc3)C[C@H]2C1 | -4.77 |
| O=C(NCc1ccco1)[C@H]1C[C@@H]2CCN(c3nncs3)C[C@H]2O1 | -9.42 |
| COCCNC(=O)[C@@H]1C[C@@H]2CCN(c3ncccn3)C[C@H]2O1 | 24.2 |
| COCCn1cc2c(n1)C(CNCc1cccc(OC)c1)OCC2 (configuration not stated) | 20.4 |
| COCC1CC2(CCN(C(=O)c3occc3C)CC2)CN1C(C)C (configuration not stated) | 20.9 |
| Cc1cccc(CN2CC3(CCN(Cc4ccoc4)CC3)OCC2=O)n1 | 17.7 |
| Cn1cc(CN2CCC(F)(F)C3(CCN(c4ccccn4)C3)C2)cn1 (configuration not stated) | -14.4 |
| Cc1ccc(CN2CC[C@H]3[C@H](CC(Cn4cccn4)N3C)C2)s1 (some centres not stated) | 15.9 |
| CN1[C@H](Cn2cccn2)C[C@@H]2CN(Cc3cccs3)CC[C@@H]21 | 18.9 |
| CN1C(Cn2cccn2)C[C@@H]2CN(Cc3cccnc3)CC[C@@H]21 (some centres not stated) | -6.35 |
| Nc1ncnc2[nH]c(N3CCCCC3)nc12 | -6.41 |
